From PMC5522529, “Mechanisms of Paradoxical Activation of AMPK by the Kinase Inhibitors SU6656 and Sorafenib” (Cell Chemical Biology, 2017)

Columns and labels:
purified rat liver AMPK = assay: Kinase assay of purified rat liver AMPK at 2 mM ATP; assay type: biochemical; conditions: ± 1 mM AMP
α2-KD [1] = molecular target: T1, α2-KD (Homo sapiens, UniProt P54646); assay: Activation and phosphorylation of unphosphorylated α2-KD (WT) by LKB1; assay type: biochemical
T1 construct: amplifying residues 1-310 with 5' BamH1 and 3' Xho1 sites; made in house; host or cells: bacteria
Excerpt: (B) Effect of ATP concentration on kinase activity of α2-KD in the presence of increasing concentrations of SU6656. Results (mean, n = 2) were fitted to the equation Y= (Vmax × X)/(Km × (1 + I/Ki) + X), where Y is the activity, X is the ATP concentration, I is the concentration of SU6656, and Ki is the inhibitory constant for SU6656. […] (D and E) Effect of increasing concentrations of SU6656 on activity (D) and Thr172 phosphorylation (E) induced by LKB1 with unphosphorylated α2-KD (WT/AT mutant). Results in (D) are mean ± SEM (n = 3); and were fitted to same equation as Figure 4C. […] See also Figure S3. (F) Effect of AMP (2 mM) and SU6656 on inactivation of AMPK by PP2Cα in the presence of 5 mM ATP. […] (G) Effects of AMP or SU6656 on activation (top) and Thr172 phosphorylation (bottom) by LKB1 of AMPK-γ1 complexes expressed in HeLa cells. FLAG-tagged AMPK-γ1, either wild-type (WT) or R299G mutant (RG), was expressed in HeLa cells and AMPK complexes precipitated using anti-FLAG antibody. The complexes (which have low basal phosphorylation due to lack of LKB1 in HeLa cells) were incubated with or without a limiting amount of LKB1, AMP (200 μM) or SU6656 (3 μM) for 10 min and AMPK activity determined.
We next used unphosphorylated α2-KD and tested the effect of SU6656 on its activation and phosphorylation by LKB1.

α2-KD [2] = molecular target: T1, α2-KD; assay: Inactivation of α2-KD by PP2Cα; assay type: biochemical; conditions: 5 mM ATP, AMP 2 mM, SU6656 up to 10 μM
Experimental: Figure 5 SU6656 Promotes AMPK Activation by Binding to the Catalytic Site: Studies in Cell-Free Assays (A) Effect of increasing concentrations of SU6656 ± 1 mM AMP in the presence of 2 mM ATP on the activity of purified rat liver AMPK. (B) Effect of ATP concentration on kinase activity of α2-KD in the presence of increasing concentrations of SU6656. Results (mean, n = 2) were fitted to the equation Y= (Vmax × X)/(Km × (1 + I/Ki) + X), where Y is the activity, X is the ATP concentration, I is the concentration of SU6656, and Ki is the inhibitory constant for SU6656. The curves were generated using this equation with the best-fit values of Vmax, Km, and Ki (shared between all four curves) quoted in the main text. (C) Inhibition of phosphorylated α2-KD (WT or AT mutant) by SU6656. […] The reduced inhibition at 10 μM SU6656 may be due to the inhibitor coming out of solution, so those data were not used for curve fitting. (D and E) Effect of increasing concentrations of SU6656 on activity (D) and Thr172 phosphorylation (E) induced by LKB1 with unphosphorylated α2-KD (WT/AT mutant). Results in (D) are mean ± SEM (n = 3); and were fitted to same equation as Figure 4C. […] The complexes (which have low basal phosphorylation due to lack of LKB1 in HeLa cells) were incubated with or without a limiting amount of LKB1, AMP (200 μM) or SU6656 (3 μM) for 10 min and AMPK activity determined. […]

mice = system: mice; set-up: method as in Yamada et al., 2010; conditions: ref Yamada et al., 2010; cited from earlier work

T1 sequence (P54646 1-310): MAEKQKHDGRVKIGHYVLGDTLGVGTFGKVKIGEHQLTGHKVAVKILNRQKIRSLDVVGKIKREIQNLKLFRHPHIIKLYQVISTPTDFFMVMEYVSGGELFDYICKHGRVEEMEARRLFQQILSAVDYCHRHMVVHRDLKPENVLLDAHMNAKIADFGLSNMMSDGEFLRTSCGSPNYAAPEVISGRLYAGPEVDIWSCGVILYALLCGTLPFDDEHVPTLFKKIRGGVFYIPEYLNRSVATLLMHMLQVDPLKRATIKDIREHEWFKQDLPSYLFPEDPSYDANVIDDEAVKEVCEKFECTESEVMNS

CN(C)S(=O)(=O)c1ccc2c(c1)/C(=C/c1cc3c([nH]1)CCCC3)C(=O)N2 [SU6656]
concentrations inhibiting both basal and AMP-stimulated activity (purified rat liver AMPK): above 1 μM
activation of α2-KD by LKB1 (α2-KD [1]; SU6656 up to 10 μM): 1.9 ± 0.2 fold
Kd (α2-KD [1]; read-out: half-maximal effect on α2-KD activation by LKB1): 200 ± 20 nM
protection against inactivation by PP2Cα (α2-KD [2]): did not protect against inactivation
fatty acid oxidation (mice): increased fatty acid oxidation
